Measured values published in US5677419A, “Cyclic vasoactive peptide analogs” (Hoffmann-La Roche Inc., priority 1994, dated 1997).
Where a SMILES comes first, the peptide text is derived from it. Bridges are numbered along the chain shown (N, C = ends). [ ]: non-standard residue; d: D form. The star is where a group is joined. Tyr(3-OMe) = COc1cc(C[C@H](N)C(=O)O)ccc1O; Phe(4-F) = N[C@@H](Cc1ccc(F)cc1)C(=O)O; NMeA = CN[C@@H](C)C(=O)O; Nle = CCCC[C@H](N)C(=O)O; Orn = NCCC[C@H](N)C(=O)O; Acm = CC(=O)NC*

Columns and labels:
[1] = test system: guinea pig tracheal smooth muscle; assay: Tracheal relaxant activity of VIP analogs on isolated guinea pig tracheal rings; type: cell-based; details: cumulative concentration response, relaxation as % of maximum response to VIP (10^-6 M=100%), three tissues pooled, linear regression
Method in brief: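 Male guinea pig tracheal rings under 1.5 g resting tension in Krebs at 37° C, 95% O2/5% CO2, isometric tension. Cumulative concentration-response curves; relaxation as % of response to 10^-6 M VIP added at end; three tissues pooled, EC50 by linear regression.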

guinea pigs = assay: In vivo bronchodilator activity by tracheal instillation against histamine challenge; set-up: species or system guinea pig; details: anesthetized male guinea pigs, inhibition of histamine (i.v.)-induced rise in tracheal pressure
Method in brief: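 Urethane-anaesthetised male Hartley guinea pigs (400-600 g) received compound in water by intratracheal instillation, then were paralysed, ventilated and challenged with histamine […] i.v. Tracheal pressure change gave % inhibition (≥3 animals/group); ED50 from log dose-response; duration as time until inhibition fell to 40%.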

EC50 [1]	SMILES	Bronchodilator activity of VIP analogs in guinea pigs, ED50 (guinea pigs)
1.1 nM	CCCC[C@H](NC(=O)[C@H](CCC(N)=O)NC(=O)[C@H](CCCCN)NC(=O)[C@H](CCCNC(=N)N)NC(=O)[C@H](CC(C)C)NC(=O)[C@H](CCCCN)NC(=O)[C@@H](NC(=O)[C@H](Cc1ccc(O)cc1)NC(=O)[C@H](CC(N)=O)NC(=O)[C@H](C)NC(=O)[C@@H](NC(=O)[C@H](Cc1ccccc1)NC(=O)[C@@H](NC(=O)[C@H](C)NC(=O)[C@H](CC(=O)O)NC(=O)[C@H](CO)NC(=O)[C@H](Cc1c[nH]cn1)NC(C)=O)C(C)C)[C@@H](C)O)[C@@H](C)O)C(=O)N[C@@H](C)C(=O)N[C@@H](C)C(=O)N[C@@H](CCCCN)C(=O)N[C@H]1CCCCNC(=O)C[C@@H](C(=O)N[C@@H](CC(C)C)C(=O)N[C@@H](CCCCN)C(=O)N[C@@H](CCCCN)C(N)=O)NC(=O)[C@H](C)NC(=O)[C@H](CC(C)C)NC(=O)[C@H](Cc2ccc(O)cc2)NC1=O [SEQ ID NO:59, Ac-[Ala^8,Lys^12,Nle^17,Ala^19,Ala^24,Asp^25,Leu^26,Lys^27,28]-VIP cyclo (Lys^21 →Asp^25)] (Ac-HSDAVFTANYTKLRKQ[Nle]AAKKYLADLKK-NH2; lactam 21-25)	0.17 μg
0.92 nM	CCCC[C@H](NC(=O)[C@H](CCC(N)=O)NC(=O)[C@H](CCCCN)NC(=O)[C@H](CCCNC(=N)N)NC(=O)[C@H](CC(C)C)NC(=O)[C@H](CCCCN)NC(=O)[C@@H](NC(=O)[C@H](Cc1ccc(O)cc1)NC(=O)[C@H](CC(N)=O)NC(=O)[C@H](CCC(=O)O)NC(=O)[C@@H](NC(=O)[C@H](Cc1ccccc1)NC(=O)[C@@H](NC(=O)[C@H](C)NC(=O)[C@H](CC(=O)O)NC(=O)[C@H](C)NC(=O)[C@H](Cc1c[nH]cn1)NC(C)=O)C(C)C)[C@@H](C)O)[C@@H](C)O)C(=O)N[C@@H](C)C(=O)N[C@@H](C)C(=O)N[C@@H](CCCCN)C(=O)N[C@H]1CCCCNC(=O)C[C@@H](C(=O)N[C@@H](CC(C)C)C(=O)N[C@@H](CCCCN)C(=O)N[C@@H](CCCCN)C(=O)NCC(=O)NCC(=O)N[C@H](C(N)=O)[C@@H](C)O)NC(=O)[C@H](CC(N)=O)NC(=O)[C@H](CC(C)C)NC(=O)[C@H](Cc2ccc(O)cc2)NC1=O [SEQ ID NO:51, Ac-[Ala^2,Glu^8,Lys^12,Nle^17,Ala^19,Asp^25,Leu^26,Lys^27,28,Gly^29,30,Thr^31]-VIP cyclo (Lys^21 →Asp^25)] (Ac-HADAVFTENYTKLRKQ[Nle]AAKKYLNDLKKGGT-NH2; lactam 21-25)	0.1 μg
2.2 nM	CCCC[C@H](NC(=O)[C@H](CCC(N)=O)NC(=O)[C@H](CCCCN)NC(=O)[C@H](CCCNC(=N)N)NC(=O)[C@H](CC(C)C)NC(=O)[C@H](CCCN)NC(=O)[C@@H](NC(=O)[C@H](Cc1ccc(O)cc1)NC(=O)[C@H](CC(N)=O)NC(=O)[C@H](CCC(=O)O)NC(=O)[C@@H](NC(=O)[C@H](Cc1ccccc1)NC(=O)[C@@H](NC(=O)[C@H](C)NC(=O)[C@H](CC(=O)O)NC(=O)[C@H](CO)NC(=O)[C@H](Cc1c[nH]cn1)NC(C)=O)C(C)C)[C@@H](C)O)[C@@H](C)O)C(=O)N[C@@H](C)C(=O)N[C@H](C(=O)N[C@@H](CCCCN)C(=O)N[C@H]1CCCCNC(=O)C[C@@H](C(=O)N[C@H](C(=O)N[C@@H](CC(C)C)C(=O)N[C@H](C(N)=O)[C@@H](C)O)C(C)C)NC(=O)[C@H](CC(N)=O)NC(=O)[C@H](CC(C)C)NC(=O)[C@H](Cc2ccc(O)cc2)NC1=O)C(C)C [SEQ ID NO:31, Ac-[Glu^8,Orn^12,Nle^17,Asp^25,Val^26,Thr^28]-VIP cyclo (Lys^21 →Asp^25)] (Ac-HSDAVFTENYT[Orn]LRKQ[Nle]AVKKYLNDVLT-NH2; lactam 21-25)	0.19 μg
0.29 nM	CCCC[C@H](NC(=O)[C@H](CCC(N)=O)NC(=O)[C@H](CCCCN)NC(=O)[C@H](CCCNC(=N)N)NC(=O)[C@H](CC(C)C)NC(=O)[C@H](CCCCN)NC(=O)[C@@H](NC(=O)[C@H](Cc1ccc(O)cc1)NC(=O)[C@H](CC(N)=O)NC(=O)[C@H](CCC(=O)O)NC(=O)[C@@H](NC(=O)[C@H](Cc1ccccc1)NC(=O)[C@@H](NC(=O)[C@H](C)NC(=O)[C@H](CC(=O)O)NC(=O)[C@H](CO)NC(=O)[C@H](Cc1c[nH]cn1)NC(C)=O)C(C)C)[C@@H](C)O)[C@@H](C)O)C(=O)N[C@@H](C)C(=O)N[C@@H](C)C(=O)N[C@@H](CCCCN)C(=O)N[C@H]1CCCCNC(=O)C[C@@H](C(=O)N[C@@H](CC(C)C)C(=O)N[C@@H](CCCCN)C(=O)N[C@@H](CCCCN)C(N)=O)NC(=O)[C@H](CC(N)=O)NC(=O)[C@H](CC(C)C)NC(=O)[C@H](Cc2ccc(O)c(OC)c2)NC1=O [SEQ ID NO:57, Ac-[Glu^8,Lys^12,Nle^17,Ala^19,m-OCH3 -Tyr^22,Asp^25,Leu^26,Lys^27,28]-VIP cyclo (Lys^21 →Asp^25)] (Ac-HSDAVFTENYTKLRKQ[Nle]AAKK[Tyr(3-OMe)]LNDLKK-NH2; lactam 21-25)	0.019 μg
0.71 nM	CCCC[C@H](NC(=O)[C@H](CCC(N)=O)NC(=O)[C@H](CCCCN)NC(=O)[C@H](CCCNC(=N)N)NC(=O)[C@H](CC(C)C)NC(=O)[C@H](CCCCN)NC(=O)[C@@H](NC(=O)[C@H](Cc1ccc(O)cc1)NC(=O)[C@H](CC(N)=O)NC(=O)[C@H](CC(=O)O)NC(=O)[C@@H](NC(=O)[C@H](Cc1ccccc1)NC(=O)[C@@H](NC(=O)[C@H](C)NC(=O)[C@H](CC(=O)O)NC(=O)[C@H](CO)NC(=O)[C@H](C)N(C)C(C)=O)C(C)C)[C@@H](C)O)[C@@H](C)O)C(=O)N[C@@H](C)C(=O)N[C@@H](C)C(=O)N[C@@H](CCCCN)C(=O)N[C@H]1CCCCNC(=O)C[C@@H](C(=O)N[C@H](C(=O)N[C@@H](CC(C)C)C(=O)N[C@H](C(N)=O)[C@@H](C)O)C(C)C)NC(=O)[C@H](CC(N)=O)NC(=O)[C@H](CC(C)C)NC(=O)[C@H](Cc2ccc(O)cc2)NC1=O [SEQ ID NO:34, Ac-[N-Me-Ala^1,Lys^12,Nle^17,Ala^19,Asp^25,Val^26,Thr^28]-VIP cyclo (Lys^21 →Asp^25)] (Ac-[NMeA]SDAVFTDNYTKLRKQ[Nle]AAKKYLNDVLT-NH2; lactam 21-25)	1.0 μg
0.44 nM	CCCC[C@H](NC(=O)[C@H](CCC(N)=O)NC(=O)[C@H](CCCCN)NC(=O)[C@H](CCCNC(=N)N)NC(=O)[C@H](CC(C)C)NC(=O)[C@H](CCCCN)NC(=O)[C@@H](NC(=O)[C@H](Cc1ccc(O)cc1)NC(=O)[C@H](CC(N)=O)NC(=O)[C@H](CC(=O)O)NC(=O)[C@@H](NC(=O)[C@H](Cc1ccc(F)cc1)NC(=O)[C@@H](NC(=O)[C@H](C)NC(=O)[C@H](CC(=O)O)NC(=O)[C@H](CO)NC(=O)[C@H](Cc1c[nH]cn1)NC(C)=O)C(C)C)[C@@H](C)O)[C@@H](C)O)C(=O)N[C@@H](C)C(=O)N[C@@H](C)C(=O)N[C@@H](CCCCN)C(=O)N[C@H]1CCCCNC(=O)C[C@@H](C(=O)N[C@H](C(=O)N[C@@H](CC(C)C)C(=O)N[C@H](C(=O)NCC(=O)NCC(=O)N[C@@H](CSCNC(C)=O)C(N)=O)[C@@H](C)O)C(C)C)NC(=O)[C@H](CC(N)=O)NC(=O)[C@H](CC(C)C)NC(=O)[C@H](Cc2ccc(O)cc2)NC1=O [SEQ ID NO:32, Ac-[p-F-Phe^6,Lys^12,Nle^17,Ala^19,Asp^25,Val^26,Thr^28,Gly^29,30,Cys(Acm)^31]-VIP (1-31)-NH2 cyclo (Lys^21 →Asp^25)] (Ac-HSDAV[Phe(4-F)]TDNYTKLRKQ[Nle]AAKKYLNDVLTGGC(Acm)-NH2; lactam 21-25)	0.19 μg
0.78 nM	CCCC[C@H](NC(=O)[C@H](CCC(N)=O)NC(=O)[C@H](CCCCN)NC(=O)[C@H](CCCNC(=N)N)NC(=O)[C@H](CC(C)C)NC(=O)[C@H](CCCCN)NC(=O)[C@@H](NC(=O)[C@H](Cc1ccc(O)cc1)NC(=O)[C@H](CC(N)=O)NC(=O)[C@H](CCC(=O)O)NC(=O)[C@@H](NC(=O)[C@H](Cc1ccccc1)NC(=O)[C@@H](NC(=O)[C@H](C)NC(=O)[C@H](CC(=O)O)NC(=O)[C@H](C)NC(=O)[C@H](Cc1c[nH]cn1)NC(C)=O)C(C)C)[C@@H](C)O)[C@@H](C)O)C(=O)N[C@@H](C)C(=O)N[C@@H](C)C(=O)N[C@@H](CCCCN)C(=O)N[C@H]1CCCCNC(=O)C[C@@H](C(=O)N[C@@H](CC(C)C)C(=O)N[C@@H](CCCCN)C(=O)N[C@@H](CCCCN)C(N)=O)NC(=O)[C@H](CC(N)=O)NC(=O)[C@H](CC(C)C)NC(=O)[C@H](Cc2ccc(O)cc2)NC1=O [SEQ ID NO:53, Ac-[Ala^2,Glu^8,Lys^12,Nle^17,Ala^19,Asp^25,Leu^26,Lys^27,28]-VIP cyclo (Lys^21 →Asp^25)] (Ac-HADAVFTENYTKLRKQ[Nle]AAKKYLNDLKK-NH2; lactam 21-25)	0.14 μg
0.42 nM	CCCC[C@H](NC(=O)[C@H](CCC(N)=O)NC(=O)[C@H](CCCCN)NC(=O)[C@H](CCCNC(=N)N)NC(=O)[C@H](CC(C)C)NC(=O)[C@H](CCCCN)NC(=O)[C@@H](NC(=O)[C@H](Cc1ccc(O)cc1)NC(=O)[C@H](CC(N)=O)NC(=O)[C@H](CC(=O)O)NC(=O)[C@@H](NC(=O)[C@H](Cc1ccccc1)NC(=O)[C@@H](NC(=O)[C@H](C)NC(=O)[C@H](CC(=O)O)NC(=O)[C@H](CO)NC(=O)[C@H](Cc1c[nH]cn1)NC(C)=O)C(C)C)[C@@H](C)O)[C@@H](C)O)C(=O)N[C@@H](C)C(=O)N[C@@H](C)C(=O)N[C@@H](CCCCN)C(=O)N[C@H]1CCCCNC(=O)C[C@@H](C(=O)N[C@@H](CC(C)C)C(=O)N[C@@H](CCCCN)C(=O)N[C@@H](CCCCN)C(=O)N[C@@H](C)C(=O)N[C@@H](C)C(=O)N[C@@H](C)C(N)=O)NC(=O)[C@H](CC(N)=O)NC(=O)[C@H](CC(C)C)NC(=O)[C@H](Cc2ccc(O)cc2)NC1=O [SEQ ID NO:69, Ac-[Lys^12,Nle^17,Ala^19,Asp^25,Leu^26,Lys^27,28,Ala^29-31]-VIP cyclo (Lys^21 →Asp^25)] (Ac-HSDAVFTDNYTKLRKQ[Nle]AAKKYLNDLKKAAA-NH2; lactam 21-25)	0.04 μg
